Assay results reported in ChEMBL document CHEMBL1130908, “Diastereoselective two-directional synthesis and cation transport ability of the central tristetrahydrofuranyl unit of meso polyether glabrescol as naturally occurring podand” (Bioorg Med Chem Lett, 1998).
Values after ≈ are worked out from the molar mass of the structure shown.

Assay: Compound was evaluated for cytotoxic activity against KB cells.
Format: functional, cell-based
Settings: Homo sapiens

Row | SMILES | IC50
1 | CC(=O)O[C@@H](CC[C@@H](O)[C@]1(C)CC[C@H]([C@@](C)(O)CCC=C(C)C)O1)[C@@]1(C)CC[C@H]([C@@](C)(O)CCC=C(C)C)O1 | 0.52 µg/mL (≈ 0.941 µM)
2 | CC(C)=CCC[C@](C)(O)[C@H]1CC[C@](C)([C@@H]2CC[C@H]([C@]3(C)CC[C@@H]([C@](C)(O)CCC=C(C)C)O3)O2)O1 | 7 µg/mL (≈ 14.2 µM)
3 | CC(C)(O)/C=C/C[C@](C)(O)[C@H]1CC[C@@](C)([C@H]2CC[C@H]([C@]3(C)CC[C@H]([C@@](C)(O)C/C=C/C(C)(C)OO)O3)O2)O1 | 5.3 µg/mL (≈ 9.8 µM)
4 | CC(=O)O[C@@H](CC[C@@H](OC(C)=O)[C@]1(C)CC[C@H]([C@@](C)(O)CCC=C(C)C)O1)[C@@]1(C)CC[C@H]([C@@](C)(O)CCC=C(C)C)O1 | > 100 µg/mL
